Columns and labels:
PA 1 = assay: MTT cytotoxicity assay, PA 1 ovary; type: cell-based; conditions: Homo sapiens; for cytotoxicity at 1000 µM / cytotoxicity at 2500 µM / cytotoxicity at 4000 µM / cytotoxicity at 5000 µM / cytotoxicity at 10000 µM: PA 1 Ovary, read-out: Percent cytotoxicity; for cytotoxicity at 1000 µM: 1.0 mM; for cytotoxicity at 2500 µM: 2.5 mM; for cytotoxicity at 4000 µM: 4 mM; for cytotoxicity at 5000 µM: 5 mM; for cytotoxicity at 10000 µM: 10 mM
Procedure: (§1) Briefly, a […] MTT cytotoxicity assay was performed, which is based on the principle of uptake of MTT (3-(4,5-dimethylthiazol-2-yl)-2,5-diphenyl tetrazolium bromide), a tetrazolium salt, by the metabolically active cells where it is metabolized by active mitochondria into a blue colored formazan product that is read spectrophoto-metrically. MTT was dissolved in phosphate buffered saline with a pH of 7.4 to obtain an MTT concentration of 5 mg/ml; the resulting mixture was filtered through a 0.22 micron filter to sterilize and remove a small amount of insoluble residue. For each type of tumor cell, 20,000 to 50,000 cells were seeded in a 96-well culture plate and incubated with the combination in a CO2 incubator for 24 hours. […] The assay was terminated after 24 hours by adding 100 ug (20 ul) of MTT to each well, then incubating for additional one hour, and finally adding 50 ul of 10% SDS-0.01N HCl to each well to lyse the cells and dissolve formazan. After incubating for one hour, the plate was read spectrophotometrically at 540 nm and the percentage cytotoxicity calculated.

MCF7 = assay: MTT cytotoxicity assay, MCF7 breast; type: cell-based; conditions: Homo sapiens; for cytotoxicity at 1000 µM / cytotoxicity at 2500 µM / cytotoxicity at 4000 µM / cytotoxicity at 5000 µM / cytotoxicity at 10000 µM: MCF7 breast, read-out: Percent cytotoxicity; for cytotoxicity at 1000 µM: 1.0 mM; for cytotoxicity at 2500 µM: 2.5 mM; for cytotoxicity at 4000 µM: 4 mM; for cytotoxicity at 5000 µM: 5 mM; for cytotoxicity at 10000 µM: 10 mM
Procedure: as §1

L132 = assay: MTT cytotoxicity assay, L132 lung; type: cell-based; conditions: Homo sapiens; for cytotoxicity at 1000 µM: 1.0 mM; for cytotoxicity at 1000 µM / cytotoxicity at 2500 µM / cytotoxicity at 4000 µM / cytotoxicity at 5000 µM / cytotoxicity at 10000 µM: read-out: Percent cytotoxicity; for cytotoxicity at 2500 µM: 2.5 mM; for cytotoxicity at 4000 µM: 4 mM; for cytotoxicity at 5000 µM: 5 mM; for cytotoxicity at 10000 µM: 10 mM
Procedure: as §1

PTC = assay: MTT cytotoxicity assay, PTC colon; type: cell-based; conditions: Homo sapiens; for cytotoxicity at 1000 µM: 1.0 mM; for cytotoxicity at 1000 µM / cytotoxicity at 2500 µM / cytotoxicity at 4000 µM / cytotoxicity at 5000 µM / cytotoxicity at 10000 µM: read-out: Percent cytotoxicity; for cytotoxicity at 2500 µM: 2.5 mM; for cytotoxicity at 4000 µM: 4 mM; for cytotoxicity at 5000 µM: 5 mM; for cytotoxicity at 10000 µM: 10 mM
Procedure: as §1

MOLT 4 = assay: MTT cytotoxicity assay, MOLT 4 leukemia; type: cell-based; conditions: Homo sapiens; for cytotoxicity at 1000 µM / cytotoxicity at 2500 µM / cytotoxicity at 4000 µM / cytotoxicity at 5000 µM / cytotoxicity at 10000 µM: MOLT 4 Leukemia, read-out: Percent cytotoxicity; for cytotoxicity at 1000 µM: 1.0 mM; for cytotoxicity at 2500 µM: 2.5 mM; for cytotoxicity at 4000 µM: 4 mM; for cytotoxicity at 5000 µM: 5 mM; for cytotoxicity at 10000 µM: 10 mM
Procedure: as §1

Swiss albino mice = conditions: both, mouse, in vivo, po, 15 days
Procedure: Acute toxicity studies were performed using the oral route of administration.
A batch of 5 female and 5 male mice each was administered the test substance by oral route. […] Another batch of 5 female and 5 male served as control.
Observations were made three times on the day of dosing and twice daily thereafter for the remainder of 14 days or until reversible toxic signs or symptoms subsided. All gross visible toxic signs and symptoms were recorded. Body weights were recorded prior to dosing and weekly thereafter.

DU145 = assay: MTT cytotoxicity assay, DU145 prostate; type: cell-based; conditions: Homo sapiens; for cytotoxicity at 1000 µM: DU-145, 1.0 mM; for cytotoxicity at 1000 µM / cytotoxicity at 2500 µM / cytotoxicity at 4000 µM / cytotoxicity at 5000 µM / cytotoxicity at 10000 µM: read-out: Percent cytotoxicity; for cytotoxicity at 2500 µM: DU-145, 2.5 mM; for cytotoxicity at 4000 µM: DU-145, 4 mM; for cytotoxicity at 5000 µM: DU-145, 5 mM; for cytotoxicity at 10000 µM: DU-145, 10 mM
Procedure: as §1

Miapaca2 = assay: MTT cytotoxicity assay, Miapaca2 pancreas; type: cell-based; conditions: Homo sapiens; for cytotoxicity at 1000 µM: MIA PaCa-2, 1.0 mM; for cytotoxicity at 1000 µM / cytotoxicity at 2500 µM / cytotoxicity at 4000 µM / cytotoxicity at 5000 µM / cytotoxicity at 10000 µM: read-out: Percent cytotoxicity; for cytotoxicity at 2500 µM: MIA PaCa-2, 2.5 mM; for cytotoxicity at 4000 µM: MIA PaCa-2, 4 mM; for cytotoxicity at 5000 µM: MIA PaCa-2, 5 mM; for cytotoxicity at 10000 µM: MIA PaCa-2, 10 mM
Procedure: as §1

Hep2 = assay: MTT cytotoxicity assay, Hep2 larynx; type: cell-based; conditions: Homo sapiens, HEp-2, 24 h, read-out: ED50 values of cytotoxicity
Procedure: as §1

U87MG = assay: MTT cytotoxicity assay, U87MG glioblastoma; type: cell-based; conditions: Homo sapiens, U-87 MG, 24 h, read-out: ED50 values of cytotoxicity
Procedure: as §1

293 = assay: MTT cytotoxicity assay, 293 kidney; type: cell-based; conditions: Homo sapiens, HEK293, 24 h, read-out: ED50 values of cytotoxicity
Procedure: as §1

KB = assay: MTT cytotoxicity assay, KB oral; type: cell-based; conditions: Homo sapiens, 24 h, read-out: ED50 values of cytotoxicity
Procedure: as §1

INT 407 = assay: MTT cytotoxicity assay, INT 407 intestine; type: cell-based; conditions: Homo sapiens, 24 h, read-out: ED50 values of cytotoxicity
Procedure: as §1

[1] = 24 h, read-out: ED50 values of cytotoxicity

Compound: CC(=O)OC(C(C)=O)N1C(=O)CCC1C(=O)OCc1ccccc1 (centres unmarked) [MGC-6, N-(1-acetoxy-2-ketopropyl)-benzylpyroglutamate]
- cytotoxicity at 1000 µM (PA 1): 42.9 ± 4.9%
- cytotoxicity at 2500 µM (PA 1): 63.9 ± 4.9%
- cytotoxicity at 4000 µM (PA 1): 86.9 ± 6.9%
- cytotoxicity at 5000 µM (PA 1): 88.7 ± 5.9%
- cytotoxicity at 10000 µM (PA 1): 84 ± 7.5%
- cytotoxicity at 1000 µM (MCF7): 0%
- cytotoxicity at 2500 µM (MCF7): 0%
- cytotoxicity at 4000 µM (MCF7): 0%
- cytotoxicity at 5000 µM (MCF7): 13.9 ± 1.1%
- cytotoxicity at 10000 µM (MCF7): 23.9 ± 2.9%
- cytotoxicity at 1000 µM (L132): 2.7 ± 0.2%
- cytotoxicity at 2500 µM (L132): 34.8 ± 5.8%
- cytotoxicity at 4000 µM (L132): 53.9 ± 5%
- cytotoxicity at 5000 µM (L132): 67.9 ± 5%
- cytotoxicity at 10000 µM (L132): 74.7 ± 7.3%
- cytotoxicity at 1000 µM (PTC): 38.9 ± 3.9%
- cytotoxicity at 2500 µM (PTC): 59.7 ± 5.3%
- cytotoxicity at 4000 µM (PTC): 75.9 ± 4%
- cytotoxicity at 5000 µM (PTC): 80.6 ± 7.4%
- cytotoxicity at 10000 µM (PTC): 86.4 ± 4%
- cytotoxicity at 1000 µM (MOLT 4): 41.9 ± 4.2%
- cytotoxicity at 2500 µM (MOLT 4): 61.9 ± 5.3%
- cytotoxicity at 4000 µM (MOLT 4): 84.9 ± 7.4%
- cytotoxicity at 5000 µM (MOLT 4): 84.8 ± 3.9%
- cytotoxicity at 10000 µM (MOLT 4): 87.1 ± 6.8%
- safe dose (Swiss albino mice): 75 mg
- cytotoxicity at 1000 µM (DU145): 37.8 ± 2.6%
- cytotoxicity at 2500 µM (DU145): 56.9 ± 4.2%
- cytotoxicity at 4000 µM (DU145): 78.9 ± 7.4%
- cytotoxicity at 5000 µM (DU145): 81.5 ± 7.3%
- cytotoxicity at 10000 µM (DU145): 85.9 ± 6.9%
- cytotoxicity at 1000 µM (Miapaca2): 0%
- cytotoxicity at 2500 µM (Miapaca2): 23.7 ± 2%
- cytotoxicity at 4000 µM (Miapaca2): 51.9 ± 5.2%
- cytotoxicity at 5000 µM (Miapaca2): 58.5 ± 5%
- cytotoxicity at 10000 µM (Miapaca2): 67.4 ± 3%

Compound: CCCCOC(=O)C1CCC(=O)N1C(OC(C)=O)C(C)=O (centres unmarked) [MGC-5, N-(1-acetoxy-2-ketopropyl)-butylpyroglutamate]
- IC50 (PA 1; 24 h, PA 1 Ovarian, read-out: ED50 values of cytotoxicity): 1600 ± 100 µM
- cytotoxicity at 1000 µM (PA 1): 31.8 ± 3.1%
- cytotoxicity at 2500 µM (PA 1): 58.8 ± 5.3%
- cytotoxicity at 4000 µM (PA 1): 83.9 ± 7.8%
- cytotoxicity at 5000 µM (PA 1): 85.9 ± 6.2%
- cytotoxicity at 10000 µM (PA 1): 86.9 ± 8.4%
- IC50 (Hep2): 1900 µM
- IC50 (MCF7; MCF7, 24 h, MCF 7 Breast, read-out: ED50 values of cytotoxicity): 5000 ± 2100 µM
- cytotoxicity at 1000 µM (MCF7): 0%
- cytotoxicity at 2500 µM (MCF7): 0%
- cytotoxicity at 4000 µM (MCF7): 34.9 ± 3.9%
- cytotoxicity at 5000 µM (MCF7): 51.9 ± 3.8%
- cytotoxicity at 10000 µM (MCF7): 58.7 ± 5%
- IC50 (U87MG): 3400 ± 1100 µM
- cytotoxicity at 1000 µM (L132): 2.9 ± 0.1%
- cytotoxicity at 2500 µM (L132): 36.9 ± 4.9%
- cytotoxicity at 4000 µM (L132): 57.8 ± 4%
- cytotoxicity at 5000 µM (L132): 59 ± 6%
- cytotoxicity at 10000 µM (L132): 76.3 ± 5.4%
- IC50 (L132; [1]): 3600 ± 1100 µM
- cytotoxicity at 1000 µM (PTC): 2.9 ± 0.3%
- cytotoxicity at 2500 µM (PTC): 37.9 ± 3.9%
- cytotoxicity at 4000 µM (PTC): 53.9 ± 5.4%
- cytotoxicity at 5000 µM (PTC): 85.9 ± 8.9%
- cytotoxicity at 10000 µM (PTC): 89.2 ± 7.4%
- IC50 (PTC; [1]): 3800 ± 900 µM
- IC50 (MOLT 4; 24 h, Molt 4 Leukemia, read-out: ED50 values of cytotoxicity): 1500 ± 100 µM
- cytotoxicity at 1000 µM (MOLT 4): 25.9 ± 2.9%
- cytotoxicity at 2500 µM (MOLT 4): 61 ± 4.8%
- cytotoxicity at 4000 µM (MOLT 4): 76 ± 7.1%
- cytotoxicity at 5000 µM (MOLT 4): 82.9 ± 6.9%
- cytotoxicity at 10000 µM (MOLT 4): 87.9 ± 6.9%
- IC50 293: 1900 ± 700 µM
- IC50 (KB): 2000 ± 700 µM
- IC50 (INT 407): 2600 ± 1100 µM
- cytotoxicity at 1000 µM (DU145): 27.9 ± 0.4%
- cytotoxicity at 2500 µM (DU145): 58.4 ± 5.9%
- cytotoxicity at 4000 µM (DU145): 59 ± 4.3%
- cytotoxicity at 5000 µM (DU145): 68.3 ± 4.6%
- cytotoxicity at 10000 µM (DU145): 80 ± 7%
- IC50 (DU145; DU-145, 24 h, read-out: ED50 values of cytotoxicity): 1900 ± 700 µM
- cytotoxicity at 1000 µM (Miapaca2): 0%
- cytotoxicity at 2500 µM (Miapaca2): 24.8 ± 2.6%
- cytotoxicity at 4000 µM (Miapaca2): 43.8 ± 3.9%
- cytotoxicity at 5000 µM (Miapaca2): 54.9 ± 4.2%
- cytotoxicity at 10000 µM (Miapaca2): 67.9 ± 4%
- IC50 (Miapaca2; MIA PaCa-2, 24 h, read-out: ED50 values of cytotoxicity): 4300 ± 1600 µM

— US20030118627A1 (DABUR RESEARCH FOUNDATION, priority 2001, published 2003)
